Literature values as cited in patent US20210353570A1, “Flutamide Microsphere-Based Arterial Embolization for Treating Prostate Disorders” (Biovena Science, LLC, priority 2018, published 2021).

Assays:
[1] = not given; remark: listed apart in the source

bioavailability (after oral administration): 49%
half-life (in vivo): 5 to 6 h
solubility [1]: low solubility
SMILES: CC(C)C(=O)Nc1ccc([N+](=O)[O-])c(C(F)(F)F)c1 [Flutamide, 4′-nitro-3′-trifluoromethyl-isobutyranilide]
